Test systems include Escherichia coli ML-35p; Listeria ivanovii; Saccharomyces cerevisiae; Acinetobacter baumannii; Aspicilia cinerea; Bacillus cereus; Bacillus subtilis; Candida albicans 1; Candida albicans; Candida glabrata; Enterococcus faecium; Escherichia coli 1; Klebsiella pneumoniae 1; Klebsiella pneumoniae; Proteus mirabilis; Proteus vulgaris; Pseudomonas aeruginosa; Staphylococcus aureus 1; Staphylococcus aureus; Vibrio anguillarum; Vibrio cholerae; Vibrio parahaemolyticus; Vibrio splendidus; Escherichia coli C600; Escherichia coli; Klebsiella pneumoniae 2; Pseudomonas aeruginosa 1; Pseudomonas aeruginosa 2.

Holding throughout (assay): ≥ marks a high value that may be exact or a test limit, other limits are often not marked, values filed in µg/mL are converted to µM
The subject of test [1] is Actinomyces naeslundii ATCC 12104.
Test [2] has as its system Actinomyces viscosus ATCC 15987.
Test [3] concerns Lacticaseibacillus casei ATCC 393.
Test [4] relates to Lactobacillus acidophilus ATCC 14931.
Test [5] deals with Limosilactobacillus fermentum ATCC 9338.
In test [6] the test system is Streptococcus gordonii DL1.
For test [7], the system named is Streptococcus mutans UA159.
Test [8] concerns Streptococcus sanguinis ATCC 10556.
For test [9], the system named is Acinetobacter baumannii ATCC 19606.
The subject of test [10] is Candida albicans ATCC 90028.
Test [11] has as its system Candida parapsilosis ATCC 22019.
Test [12] relates to Enterococcus faecalis ATCC 29212.
Test [13] has as its system Escherichia coli ATCC 25922.
Test [14] concerns Klebsiella pneumoniae ATCC 13883.
In test [15] the test system is Pseudomonas aeruginosa ATCC 27853.
In test [16] the test system is Salmonella enterica subsp. enterica serovar Enteritidis.
The test system of test [17] is Staphylococcus aureus ATCC 25923.
Test [18] has as its system Staphylococcus aureus ST1065.
The subject of test [19] is Streptococcus pyogenes ATCC 19615.
Test [20] concerns Acinetobacter baumannii 1.
In test [21] the test system is Staphylococcus epidermidis.
Test [22] deals with Vibrio parahaemolyticus ATCC 17802.
In test [23] the test system is Pseudomonas aeruginosa PAO1.
Test [24] concerns Staphylococcus aureus 209P.
The subject of test [25] is Staphylococcus aureus ATCC 33591.

Molecules are shown by their SMILES. In brackets after ≈: the same amount, converted by molar mass. Several values for one entry are separate records, joined by “and”; a condition that tells them apart may be missing. Equal values may be shown once.

As a reminder, the MIC is the least concentration at which growth counts as inhibited. Low values mean inhibition by little substance, high ones a need for much substance. For `CC(C)C[C@H](NC(=O)CN)C(=O)N[C@@H](CC(C)C)C(=O)N[C@@H](Cc1c[nH]c2ccccc12)C(=O)N[C@@H](Cc1cnc[nH]1)C(=O)N[C@@H](CC(C)C)C(=O)N[C@@H](CC(C)C)C(=O)N[C@@H](Cc1cnc[nH]1)C(=O)N[C@@H](Cc1cnc[nH]1)C(=O)N[C@@H](CC(C)C)C(=O)N[C@@H](CC(C)C)C(=O)N[C@@H](Cc1cnc[nH]1)C(=O)N[C@@H](CC(C)C)C(=O)N[C@@H](CC(C)C)C(=O)N[C@@H](Cc1cnc[nH]1)C(=O)N[C@@H](Cc1cnc[nH]1)C(N)=O` [GLLWHLLHHLLHLLHH], the MIC in [1] was at least 257 µM; in [2], at least 257 µM; in [3], 4.02 µM (≈ 8 µg/mL); in test [4], 4.02 µM (≈ 8 µg/mL); in test [5], 16.1 µM (≈ 32 µg/mL); in [6], at least 64.3 µM. Also, the results for the MIC in test [7] and in test [8] were at least 257 µM and at least 64.3 µM, respectively.
Regarding `CC[C@H](C)[C@H](NC(=O)CNC(=O)[C@H](CO)NC(=O)[C@H](C)NC(=O)[C@@H](N)Cc1ccccc1)C(=O)N[C@@H](C)C(=O)NCC(=O)N[C@@H](CCSC)C(=O)N[C@@H](C)C(=O)NCC(=O)N[C@@H](CCCCN)C(=O)N[C@@H](CC(C)C)C(=O)N[C@@H](Cc1ccccc1)C(N)=O` [FASGIAGMAGKLF], the MIC is above 200 µM in test [9]; at least 200 µM in test [10]; at least 200 µM in [11]; above 200 µM in test [12]; above 200 µM in test [13]; at least 200 µM with Escherichia coli ML-35p. In addition, the MIC was at least 200 µM in [14]; at least 200 µM in the test with Listeria ivanovii; above 200 µM in test [15]; at least 200 µM against Saccharomyces cerevisiae; at least 200 µM in test [16]; above 200 µM in test [17]. For the same compound, the MIC in [18] and in test [19] was at least 200 µM in each case.
`CC[C@H](C)[C@H](NC(=O)[C@H](CCCCN)NC(=O)[C@H](CC(C)C)NC(=O)[C@H](C)NC(=O)CNC(=O)[C@H](CC(N)=O)NC(=O)[C@H](CC(C)C)NC(=O)[C@@H](NC(=O)[C@H](CCCCN)NC(=O)[C@H](CCCCN)NC(=O)[C@H](Cc1c[nH]c2ccccc12)NC(=O)[C@H](Cc1ccccc1)NC(=O)[C@H](CCCCN)NC(=O)[C@H](CCCN=C(N)N)NC(=O)[C@H](CCCN=C(N)N)NC(=O)[C@@H](N)[C@@H](C)O)C(C)C)C(=O)N[C@@H](C)C(=O)N1CCC[C@H]1C(=O)N[C@@H](Cc1ccccc1)C(=O)N[C@@H](CC(C)C)C(=O)N[C@@H](CC(C)C)C(=O)NCC(=O)O` [TRRKFWKKVLNGALKIAPFLLG]: the MIC in test [20] was 7.33 µM (≈ 18.8 µg/mL); in the test with Acinetobacter baumannii, at least 78.2 µM; in the test with Aspicilia cinerea it was 7.33 µM (≈ 18.8 µg/mL); with Bacillus cereus, 7.33 µM (≈ 18.8 µg/mL); with Bacillus subtilis, 0.919 µM (≈ 2.35 µg/mL); in the test with Candida albicans 1, 5.19 µM (≈ 13.3 µg/mL). Moreover, the MIC is 14.7 µM (≈ 37.5 µg/mL) in the test on Candida albicans; 14.7 µM (≈ 37.5 µg/mL) in the test on Candida glabrata; 7.33 µM (≈ 18.8 µg/mL) against Enterococcus faecium; 7.33 µM (≈ 18.8 µg/mL) against Escherichia coli 1; at least 78.2 µM in the test on Klebsiella pneumoniae 1; 5.19 µM (≈ 13.3 µg/mL) in the test with Klebsiella pneumoniae. The MIC in the test on Proteus mirabilis is 1.83 µM (≈ 4.69 µg/mL); in the test with Proteus vulgaris, at least 78.2 µM; in test [15], 7.33 µM (≈ 18.8 µg/mL); against Pseudomonas aeruginosa it was 5.19 µM (≈ 13.3 µg/mL); against Staphylococcus aureus 1, 5.19 µM (≈ 13.3 µg/mL); in [17], 14.7 µM (≈ 37.5 µg/mL). In addition, the MIC against Staphylococcus aureus was determined as 14.7 µM (≈ 37.5 µg/mL); in [21], 7.33 µM (≈ 18.8 µg/mL); with Vibrio anguillarum, 1.83 µM (≈ 4.69 µg/mL); in the test on Vibrio cholerae, 7.33 µM (≈ 18.8 µg/mL); in test [22], 1.83 µM (≈ 4.69 µg/mL); against Vibrio parahaemolyticus, 1.83 µM (≈ 4.69 µg/mL). The same compound came in with an MIC against Vibrio splendidus of 1.83 µM (≈ 4.69 µg/mL).
Consider `CC(C)[C@@H]1NC(=O)CNC(=O)[C@H](CCCN=C(N)N)NC(=O)[C@H](C(C)C)NC(=O)[C@@H]2CSSC[C@H](NC1=O)C(=O)N[C@@H](Cc1ccc(O)cc1)C(=O)N[C@@H](CCCN=C(N)N)C(=O)N[C@@H](CCCN=C(N)N)C(=O)N[C@H](C(=O)N[C@@H](Cc1c[nH]c3ccccc13)C(=O)O)CSSC[C@H](NC(=O)[C@H](Cc1c[nH]c3ccccc13)NC(=O)[C@@H](N)CCCN=C(N)N)C(=O)N[C@@H](C(C)C)C(=O)N[C@@H](Cc1ccc(O)cc1)C(=O)N[C@@H](C)C(=O)N2` [RWCVYACVRGVCYRRCW], for which the MIC is 1 µM and 0.5 µM against Escherichia coli 1; 1.56 µM (≈ 3.39 µg/mL) with Escherichia coli C600; 0.5 µM and 1 µM against Escherichia coli; 1 µM and 2 µM against Klebsiella pneumoniae 1; 2 µM and 4 µM in the test on Klebsiella pneumoniae 2; 2 µM (≈ 4.35 µg/mL) in the test on Pseudomonas aeruginosa 1. Also, the MIC came to 2 µM (≈ 4.35 µg/mL) against Pseudomonas aeruginosa 2, 3.13 µM (≈ 6.81 µg/mL) in [23], 3.13 µM (≈ 6.81 µg/mL) in test [24] and 0.12 µM (≈ 0.261 µg/mL) in test [25].

The values above are taken from DBAASP.
